# Measured values as given in patent publication US10071979B2, “Process of producing cycloalkylcarboxamido-indole compounds” (Vertex Pharmaceuticals Incorporated, priority 2010, dated 2018).
# Molecular target: T1, ΔF508-CFTR (Homo sapiens, UniProt P13569, DEL508-508)
# T1 construct: expressed in transfected cells
# Assay: Assays for detecting and measuring ΔF508-CFTR correction properties (membrane potential optical assay, FRET voltage-sensor dyes)
# Assay type: cell-based
# Conditions: NIH3T3 mouse fibroblasts stably expressing ΔF508-CFTR; percent activity bins
# Text: Assays for Detecting and Measuring ΔF508-CFTR Correction Properties of Compounds
# Membrane Potential Optical Methods for Assaying ΔF508-CFTR Modulation Properties of Compounds
# The optical membrane potential assay utilized voltage-sensitive FRET sensors described by Gonzalez and Tsien (See, Gonzalez, J. E. and R. Y. Tsien (1995) “Voltage sensing by fluorescence resonance energy transfer in single cells” Biophys J 69(4): 1272-80, and Gonzalez, J. E. and R. Y. Tsien (1997) “Improved indicators of cell membrane potential that use fluorescence resonance energy transfer” Chem Biol 4(4): 269-77) in combination with instrumentation for measuring fluorescence changes such as the Voltage/Ion Probe Reader (VIPR) (See, Gonzalez, J. E., K. Oades, et al. (1999) “Cell-based assays and instrumentation for screening ion-channel targets” Drug Discov Today 4(9): 431-439).
# These voltage sensitive assays are based on the change in fluorescence resonant energy transfer (FRET) between the membrane-soluble, voltage-sensitive dye, DiSBAC2(3), and a fluorescent phospholipid, CC2-DMPE, which is attached to the outer leaflet of the plasma membrane and acts as a FRET donor. […] The changes in fluorescence emission were monitored using VIPR™ II, which is an integrated liquid handler and fluorescent detector designed to conduct cell-based screens in 96- or 384-well microtiter plates. […]
# T1 sequence (P13569 with tags, fused parts or gaps DEL508-508): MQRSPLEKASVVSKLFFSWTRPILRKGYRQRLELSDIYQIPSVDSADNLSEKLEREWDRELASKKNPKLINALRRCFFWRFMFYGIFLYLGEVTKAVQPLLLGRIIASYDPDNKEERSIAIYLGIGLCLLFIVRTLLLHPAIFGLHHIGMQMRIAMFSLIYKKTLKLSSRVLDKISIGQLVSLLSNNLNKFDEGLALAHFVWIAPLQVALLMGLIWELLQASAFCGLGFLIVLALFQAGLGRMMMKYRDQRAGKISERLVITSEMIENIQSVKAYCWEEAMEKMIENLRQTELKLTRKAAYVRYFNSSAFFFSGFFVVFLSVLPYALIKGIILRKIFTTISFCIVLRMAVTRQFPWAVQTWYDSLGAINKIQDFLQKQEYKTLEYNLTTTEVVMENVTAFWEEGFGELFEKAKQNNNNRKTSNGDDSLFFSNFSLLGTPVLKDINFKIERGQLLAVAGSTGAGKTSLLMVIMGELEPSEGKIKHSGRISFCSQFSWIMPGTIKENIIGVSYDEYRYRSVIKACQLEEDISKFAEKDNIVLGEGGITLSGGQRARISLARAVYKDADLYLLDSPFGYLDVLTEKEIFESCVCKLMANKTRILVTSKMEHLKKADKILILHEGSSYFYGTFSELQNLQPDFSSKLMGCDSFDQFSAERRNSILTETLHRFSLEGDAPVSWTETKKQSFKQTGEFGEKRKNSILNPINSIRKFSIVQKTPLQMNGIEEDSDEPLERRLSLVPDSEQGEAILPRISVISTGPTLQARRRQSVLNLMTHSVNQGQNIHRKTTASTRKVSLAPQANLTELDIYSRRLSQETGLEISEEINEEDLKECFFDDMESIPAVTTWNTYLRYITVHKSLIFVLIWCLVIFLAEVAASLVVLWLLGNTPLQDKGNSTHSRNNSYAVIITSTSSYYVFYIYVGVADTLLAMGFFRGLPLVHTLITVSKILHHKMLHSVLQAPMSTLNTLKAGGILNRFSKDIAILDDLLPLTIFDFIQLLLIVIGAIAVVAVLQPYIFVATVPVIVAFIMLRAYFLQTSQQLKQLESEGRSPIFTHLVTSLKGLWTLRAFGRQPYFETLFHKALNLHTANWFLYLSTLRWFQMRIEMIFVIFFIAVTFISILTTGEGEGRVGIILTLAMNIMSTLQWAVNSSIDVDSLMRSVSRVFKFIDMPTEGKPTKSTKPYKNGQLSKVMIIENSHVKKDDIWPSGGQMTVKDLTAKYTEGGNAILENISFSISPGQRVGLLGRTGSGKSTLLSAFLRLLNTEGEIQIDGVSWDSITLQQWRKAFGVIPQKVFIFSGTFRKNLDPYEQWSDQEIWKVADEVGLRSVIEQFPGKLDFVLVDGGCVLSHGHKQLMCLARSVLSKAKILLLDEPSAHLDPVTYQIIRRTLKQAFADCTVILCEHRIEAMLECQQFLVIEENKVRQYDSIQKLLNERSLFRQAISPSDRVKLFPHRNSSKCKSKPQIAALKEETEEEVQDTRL
smiles,measurement,value
"CC(C)(CO)c1cc2cc(NC(=O)C3(c4ccc5c(c4)OC(F)(F)O5)CC3)c(F)cc2n1C[C@@H](O)CO [Compound 1, (R)-1-(2,2-difluorobenzo[d][1,3]dioxol-5-yl)-N-(1-(2,3-dihydroxypropyl)-6-fluoro-2-(1-hydroxy-2-methylpropan-2-yl)-1H-indol-5-yl)cyclopropanecarboxamide]",Binned MaxEfficacy (PercentActivity),+++ (100.0 < +++)
